This is an account of results in paper PMC9229564 (Viruses, 2022).

One may read the Ki as a dissociation constant, usually derived from enzyme kinetics or from competition with a known ligand. In general, EC50 refers to the concentration giving half of the maximal effect. Lower therefore signals a more potent agent.

In data set [1] the target is human SK1 (Homo sapiens, UniProt Q9NYA1). In words: SK1 inhibition (Ki). The format is biochemical.
Data set [2] deals with CHIKV. The experiment in a line: CHIKV infection of HeLa cells, immunofluorescence high-content imaging. The format is cell-based, Chikungunya virus (clone 181/25). The note with it: for inhibition of CHIKV infection (nsP3 expression), screen: 20 µM, cutoff at least 50% inhibition with at least 75% cell viability; for EC50: HeLa cells, CHIKV infection, increasing concentration of inhibitor.

Data set [3] concerns SK1 and SK2. The arrangement: method as in earlier work. The following applies: yeast assay; more potent at SK1 than SK2; cited from earlier work.
Data set [4] concerns the target T1, human SK2 (Homo sapiens, UniProt Q9NRA0).
T1 sequence (Q9NRA0 1-654): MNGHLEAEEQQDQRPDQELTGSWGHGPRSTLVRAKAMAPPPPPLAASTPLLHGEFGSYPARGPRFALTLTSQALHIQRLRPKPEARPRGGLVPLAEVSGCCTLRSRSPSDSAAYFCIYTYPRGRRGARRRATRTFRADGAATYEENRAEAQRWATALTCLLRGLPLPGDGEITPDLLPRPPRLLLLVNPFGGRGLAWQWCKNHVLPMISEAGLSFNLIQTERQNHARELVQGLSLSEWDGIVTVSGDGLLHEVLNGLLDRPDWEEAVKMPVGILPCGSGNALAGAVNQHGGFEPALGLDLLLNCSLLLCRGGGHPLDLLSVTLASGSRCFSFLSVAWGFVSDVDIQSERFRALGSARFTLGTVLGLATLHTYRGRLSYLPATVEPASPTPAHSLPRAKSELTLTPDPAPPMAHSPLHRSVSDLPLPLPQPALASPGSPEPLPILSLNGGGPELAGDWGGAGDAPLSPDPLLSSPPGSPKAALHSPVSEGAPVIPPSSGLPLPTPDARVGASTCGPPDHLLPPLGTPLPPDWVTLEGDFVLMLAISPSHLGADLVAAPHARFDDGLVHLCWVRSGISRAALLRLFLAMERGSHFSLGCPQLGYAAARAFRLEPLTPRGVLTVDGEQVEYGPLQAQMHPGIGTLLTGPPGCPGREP
In words: SK2 inhibition (Ki). It is filed as biochemical.

The subject of data set [5] is CHIKV. The note with it: previous work; cited from earlier work.
In data set [6] the test system is CHIKV. In words: plaque assay of infectious virus release (supernatants on Vero E6 cells). It is filed as cell-based, Chikungunya virus (clone 181/25). The note with it: 25 µM, supernatant 24 h post-infection, plaques on Vero E6 over 72 h.
Data set [7] concerns HeLa cells. In words: virus-free cell viability assay. It is filed as cell-based.
For data set [8], the system named is CHIKV. The experiment in a line: qRT-PCR of viral nsP1 expression in CHIKV-infected HeLa cells. The format is cell-based, Chikungunya virus (clone 181/25). The note with it: 20 µM, 1 h pre-treatment, MOI 1, 24 h. Background: In qPCR the cycle at which signal appears reflects the starting amount.
Setting [9] is: 1 h pre-treatment, HeLa, MOI = 1, 24 h.

Molecules are shown by their SMILES. Entries after “also recorded” stand apart in the source; their conditions may differ. Like-named read-outs stand apart in the source and are kept apart here.

human SK1, sequence (Q9NYA1 whole entry): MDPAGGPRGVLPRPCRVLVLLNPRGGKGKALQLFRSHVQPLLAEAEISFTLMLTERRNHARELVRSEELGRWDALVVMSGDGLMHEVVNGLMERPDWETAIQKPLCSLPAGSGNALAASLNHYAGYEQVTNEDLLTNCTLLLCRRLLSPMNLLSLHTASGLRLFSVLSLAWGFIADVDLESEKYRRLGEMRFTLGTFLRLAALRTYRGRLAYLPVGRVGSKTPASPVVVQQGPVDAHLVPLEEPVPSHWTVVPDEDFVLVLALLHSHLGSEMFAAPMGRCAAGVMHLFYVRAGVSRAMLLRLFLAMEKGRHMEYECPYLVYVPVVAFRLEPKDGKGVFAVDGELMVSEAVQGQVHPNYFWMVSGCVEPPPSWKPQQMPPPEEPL

Regarding `CCCCCOc1ccc2cc(-c3noc([C@@H]4[C@@H](O)CCN4C(=N)N)n3)ccc2c1` [SLC5111312], the Ki in data set [1] is 360 ± 90 nM; in data set [4], 330 ± 70 nM. Besides, the “inhibition of CHIKV infection (nsP3 expression), screen” value (shortened to “inhibition of CHIKV infection … screen”) in data set [2] (setting [9]) is recorded as “significantly inhibited CHIKV infection”. Further, the EC50 in data set [2] (Chikungunya virus, HeLa) amounted to 11800 nM. For the same compound, the “potency at SK1 relative to SK2” value in data set [3] was 2 fold.
Regarding `N=C(N)N1CCC[C@H]1Cc1nc(-c2ccc(Oc3nc(Br)cs3)cc2)no1` [SLC4091425], the Ki in data set [1] (read-out: SK1 Ki) and in data set [4] (read-out: SK2 Ki) was greater than 3000 nM each time. Also, the “inhibition of CHIKV infection … screen” value in data set [2] (setting [9]) is on record as “significantly inhibited CHIKV infection”. For the same compound, the midpoint of the response in data set [2] (Chikungunya virus, HeLa), the EC50, lay at 3350 nM.
Turning to `O=C(NCc1ccncc1)C12CC3CC(C1)CC(c1ccc(Cl)cc1)(C3)C2` [ABC294640], the “timing of effective inhibition of CHIKV infection” value in data set [5] is recorded as “most effective at inhibiting CHIKV infection”.
Take `CCCCCCCCCCCCc1ccc(CN2CCCC2CO)cc1` (stereo not drawn) [SLL3071511]: the “plaque counts (infectious virus release)” value in data set [6] is on record as “significantly diminished”. Also, in data set [7], the non-toxic concentration result was “up to 50 µM”. Besides, the “inhibition of CHIKV infection … screen” value in data set [2] (setting [9]) is given as “significantly inhibited CHIKV infection”. Further, the “viral glycoprotein (E2) expression” value in data set [2] (1 h pre-treatment, HeLa, MOI = 1, 24 h, Supplementary Figure S3) was “decreased”. Also, the half-maximal effective concentration (EC50) is 2900 nM in data set [2] (Chikungunya virus, HeLa) and 2910 nM in data set [2]. The “anti-CHIKV activity at higher MOI” value in data set [2] (HeLa, MOI = 10, 24 h) is listed as “retained significant anti-CHIKV activity”. Besides, in data set [2] (treatment 1 h before, along with or 1 h after infection, MOI 1), the “timing of effective inhibition of CHIKV infection” value is reported as “highest inhibitory effect occurring when the compound is used prior to infection; also recorded: maximal inhibition occurring when SLL3071511 is added prior to infection”. Also, in data set [8], the “viral nsP1 expression” value is “significantly diminished”. In data set [4] (read-out: SK2 Ki), the Ki was 660 ± 110 nM.
On to `CCCCCCCCCCCCc1ccc(CN(C)C2CCCC2O)cc1` (stereo not drawn) [SLL3041783], for which the Ki is 2400 ± 610 nM in data set [1] (read-out: SK1 Ki) and greater than 3000 nM in data set [4] (read-out: SK2 Ki). For the same compound, the “inhibition of CHIKV infection … screen” value in data set [2] (setting [9]) is listed as “significantly inhibited CHIKV infection”. The compound further registered an EC50 in data set [2] (Chikungunya virus, HeLa) of 3330 nM.
